PMC3118575 (Bioconjugate chemistry, 2011)

Key:
MMP-2 = test: In vitro MMP-2 enzyme specificity; format: biochemical
[1] = test system: MMP- and αvβ3 integrin receptor-positive U87MG tumor; test: In vivo NIR fluorescence imaging of U87MG tumor-bearing mice; settings: for Clearance from the blood and other organs / Fluorescent signals in the tumor over time: 0.5 nmol injected
U87MG tumor = test: Ex vivo biodistribution in tumors and organs; parameters: species or system mice; settings: tumors and organs removed after 4 h time point; n = 3
U87MG cells = test: NIR fluorescence microscopy of fixed U87MG cells; format: cell-based, human

Compound	Recovery of fluorescence at different MMP-2 concentrations (MMP-2; MMP-2 0, 2, 5, 10, 20, 40 nM, 80 min incubation, n = 3)	Fluorescence recovery in the presence of MMP inhibitor (MMP-2; MMP-2 with homophenylalanine-hydroxamine acid based broad spectrum MMP inhibitor)	NIR fluorescence signal from the tumor with MMP inhibitor ([1]; 3 nmol i.v., MMP inhibitor intratumorally injected 30 min before)	Tumor uptake with excess unlabeled c(RGDyK) ([1]; 30 min post-injection, c(RGDyK) 200 nmol)	NIR fluorescent images compared to 6 ([1]; intravenous, 3 nmol of 4, from 1 h post-injection)	Visualization of MMP expression in MMP-positive tumor ([1]; intravenous, 4 at 3 nmol, imaging for 4 h)	Ex vivo biodistribution (U87MG tumor)	Binding with receptor blocking by excess c(RGDyK) (U87MG cells; 30 min at 37 °C, blocking dose of c(RGDyK) 10 µM)	Fluorescent signals on cells (U87MG cells; 30 min incubation at 37 °C, without blocking)	Clearance from the blood and other organs ([1]; imaging for 4 h)	Fluorescent signals in the tumor over time ([1]; imaging for 4 h)
CCN(CC)c1ccc2nc3ccc(N=Nc4ccc(N(C)CCCC(=O)NCCCC[C@H](NC(=O)CNC(=O)[C@H](CCCNC(=N)N)NC(=O)[C@@H](NC(=O)CNC(=O)[C@H](CC(C)C)NC(=O)[C@@H]5CCCN5C(=O)CNC(=O)CCCCC[N+]5=C(C=CC=CC=C6N(CC)c7ccc8c(S(=O)(=O)O)cc(S(=O)(=O)O)cc8c7C6(C)C)C(C)(C)c6c5ccc5c(S(=O)(=O)O)cc(S(=O)(=O)O)cc65)C(C)C)C(=O)NCC(=O)NCC(=O)NCCCC[C@@H]5NC(=O)[C@@H](Cc6ccc(O)cc6)NC(=O)[C@H](CC(=O)O)NC(=O)CNC(=O)[C@H](CCCNC(=N)N)NC5=O)cc4)cc3[n+](-c3ccccc3)c2c1 [compound 4]	dependent on the MMP-2 concentration	inhibited	significantly reduced	effectively blocked	brighter NIR fluorescent images compared to 6	enabled visualization of MMP expression in an MMP-positive tumor	predominantly activated in the tumors among other organs	–	–	–	–
CCN1C(=CC=CC=CC2=[N+](CCCCCC(=O)NCC(=O)N3CCC[C@H]3C(=O)N[C@@H](CC(C)C)C(=O)NCC(=O)N[C@H](C(=O)N[C@@H](CCCNC(=N)N)C(=O)NCC(=O)N[C@@H](CCCCN)C(=O)NCC(=O)NCC(=O)NCCCC[C@@H]3NC(=O)[C@@H](Cc4ccc(O)cc4)NC(=O)[C@H](CC(=O)O)NC(=O)CNC(=O)[C@H](CCCNC(=N)N)NC3=O)C(C)C)c3ccc4c(S(=O)(=O)O)cc(S(=O)(=O)O)cc4c3C2(C)C)C(C)(C)c2c1ccc1c(S(=O)(=O)[O-])cc(S(=O)(=O)O)cc21 [compound 5]	–	–	–	–	–	–	–	significantly decreased binding	strong positive fluorescent signals on the cell membranes	slowly cleared from the blood and other organs	gradually increased fluorescent signals in the tumor
N=C(N)NCCC[C@@H]1NC(=O)[C@H](CCCCN)NC(=O)[C@@H](Cc2ccc(O)cc2)NC(=O)[C@H](CC(=O)O)NC(=O)CNC1=O [compound 7, reference compound]	–	–	–	–	–	–	–	–	–	slowly cleared from the blood and other organs	gradually increased fluorescent signals in the tumor
